In assay [1] the test system is ABUTH (Abutilon theophrasti). In words: Post-emergence greenhouse pot test, herbicidal activity (scale 0 to 100). It is filed as in vivo. The procedure:
(§1) However, the weed control afforded by the compounds, mixtures or compositions is not limited to these species. The analysis of synergism or antagonism between the mixtures or compositions was determined using Colby's equation.
(§2) The culture containers used were plastic flowerpots containing loamy sand with approximately 3.0% of humus as the substrate. The seeds of the test plants were sown separately for each species and/or resistant biotype. For the pre-emergence treatment, the active ingredients, which had been suspended or emulsified in water, were applied directly after sowing by means of finely distributing nozzles. The containers were irrigated gently to promote germination and growth and subsequently covered with transparent plastic hoods until the plants had rooted. This cover caused uniform germination of the test plants, unless this had been impaired by the active ingredients. For the post-emergence treatment, the test plants were first grown to a height of 3 to 15 cm, depending on the plant habit, and only then treated with the active ingredients which had been suspended or emulsified in water. For this purpose, the test plants were either sown directly and grown in the same containers, or they were first grown separately as seedlings and transplanted into the test containers a few days prior to treatment. Depending on the species, the plants were kept at 10-25° C. or 20-35° C., respectively. The test period extended to 20 days after treatment. During this time, the plants were tended, and their response to the individual treatments was evaluated. The evaluation was carried out by using a scale from 0 to 100. 100 means no emergence of the plants or complete destruction of at least the above-ground parts, and 0 means no damage, or normal course of growth. Data shown are the mean of two replications.

Assay [2] deals with AVEFA (Avena fatua). The assay is described as above. It is filed as in vivo. The note with it: scale 0-100. The procedure: as §1, §2

Molecules are shown by their SMILES.

With `Cn1nc(C(F)(F)F)c(CS(=O)(=O)C2=NOC(C)(C)C2)c1OC(F)F` [Pyroxasulfone, pyroxasulfone], the “Herbicidal activity against ABUTH, Found” value in assay [1] (Pyroxasulfone 25 g ai/ha alone, scale 0-100) came out at 40; in assay [1] (Pyroxasulfone 50 g ai/ha alone, scale 0-100) it was 70.

In the case of `CP(=O)(O)CC[C@H](N)C(=O)O` [L-Glufosinate, (2S)-2-amino-4-[hydroxy(methyl)phosphinoyl]butyric acid], the “Herbicidal activity against ABUTH, Found” value is recorded as 0 in assay [1] (L-Glufosinate 75 g ai/ha alone, scale 0-100); 55 in assay [1] (L-Glufosinate 150 g ai/ha alone, scale 0-100); 65 in assay [1] (L-Glufosinate 200 g ai/ha alone, scale 0-100, mean of two replications). Further, the “Herbicidal activity against AVEFA, Found” value in assay [2] (L-Glufosinate 75 g ai/ha alone) and in assay [2] (L-Glufosinate 150 g ai/ha alone) was 0 in each case.

For the compound `CCOCCN(C(=O)CCl)C(=C(C)C)c1ccccc1` [Pethoxamid, pethoxamid], the “Herbicidal activity against ABUTH, Found” value in assay [1] (Pethoxamid 50 g ai/ha alone, scale 0-100) is 0; in assay [1] (Pethoxamid 100 g ai/ha alone, scale 0-100), 0. Moreover, the “Herbicidal activity against AVEFA, Found” value in assay [2] (Pethoxamid 50 g ai/ha alone) and in assay [2] (Pethoxamid 100 g ai/ha alone) was 0 each time.

Values taken from patent publication US12133530B2, “Herbicidal mixtures comprising L-glufosinate or its salt and at least one VLCFA inhibitor” (BASF SE, priority 2017, dated 2024).
